Literature values, collected in patent US8541178B2, “Analysis of antibody drug conjugates by bead-based affinity capture and mass spectrometry” (Genentech, Inc., priority 2008, dated 2013).

Conditions: more cytotoxic than conventional cancer chemotherapeutic agents

COc1cc2cc(c1Cl)N(C)C(=O)C[C@H](OC(=O)[C@H](C)N(C)C(C)=O)[C@]1(C)O[C@H]1[C@H](C)[C@@H]1C[C@@](O)(NC(=O)O1)[C@H](OC)/C=C/C=C(\C)C2 [Maytansine]
Cytotoxicity relative to methotrexate, daunorubicin, and vincristine: 100- to 1000 fold
